Measurements published in patent US7601357B2 (priority 2005, dated 2009).
Several values for one entry are separate records, joined by “and”; a condition that tells them apart may be missing. Equal values may be shown once.

target: T1, LIPY (Mycobacterium tuberculosis, UniProt I6Y2J4); format: biochemical; settings: not given
T1 construct: The 24 open-reading frames (ORFs) were amplified from the genomic DNA of M. tuberculosis H37Rv; 6xHis (pET200 D-TOPO N-terminal fusion) (N); made in house; host or cells: E. coli BL21 Star (DE3)
T1 sequence (I6Y2J4 1-437): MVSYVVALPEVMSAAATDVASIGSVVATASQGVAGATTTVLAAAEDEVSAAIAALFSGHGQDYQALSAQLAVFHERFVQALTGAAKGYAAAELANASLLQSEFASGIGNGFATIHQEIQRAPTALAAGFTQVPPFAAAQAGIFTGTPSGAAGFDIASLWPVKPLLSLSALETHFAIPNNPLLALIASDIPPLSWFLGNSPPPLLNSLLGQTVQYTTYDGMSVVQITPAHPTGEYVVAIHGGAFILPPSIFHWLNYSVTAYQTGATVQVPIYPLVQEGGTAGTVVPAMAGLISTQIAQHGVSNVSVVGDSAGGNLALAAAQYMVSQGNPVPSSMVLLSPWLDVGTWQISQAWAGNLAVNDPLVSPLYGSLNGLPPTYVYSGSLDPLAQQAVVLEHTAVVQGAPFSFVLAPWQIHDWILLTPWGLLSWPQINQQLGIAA

| Molecule | Effect of salt on LIPY activity (in words) | LIPY activity (triolein hydrolase) Mean ± SD |
| --- | --- | --- |
| [Cl-].[K+] [KCl] | enhanced the activity | 675.2 ± 103.5 nmol/mg/min and 686.8 ± 68.8 nmol/mg/min |
| [Cl][Mn][Cl] [MnCl2] | inhibited the activity |  |
| [Cl-].[Cl-].[Co+2] [CoCl2] | inhibited the activity |  |
| [Cl-].[Cl-].[Zn+2] [ZnCl2] | inhibited the activity |  |
| CC(=O)[O-].[K+] [CH3COO.K, potassium acetate] | enhanced the activity | 692.6 ± 57.0 nmol/mg/min and 749.0 ± 73.3 nmol/mg/min |
| CC(=O)[O-].[Na+] [CH3COO.Na, sodium acetate] | enhanced the activity | 681.7 ± 80.3 nmol/mg/min and 729.3 ± 96.5 nmol/mg/min |
| [Cl-].[Na+] [NaCl] | enhanced the activity | 681.3 ± 87.2 nmol/mg/min |
| [Cl-].[Cl-].[Mg+2] [MgCl2] | inhibited the activity | 306.3 ± 111.1 nmol/mg/min and 219.9 ± 34.3 nmol/mg/min |
| [Ca+2].[Cl-].[Cl-] [CaCl2] | inhibited |  |

same assay, conditions: 0.5 µM

| Molecule | Inhibition of LIPY activity |
| --- | --- |
| CCOP(=O)(OCC)Oc1ccc([N+](=O)[O-])cc1 [E-600, diethyl-p-nitrophenyl phosphate, reference compound] | 99.5% |

same assay, conditions: 0.1%

| Molecule | Effect of detergent on LIPY lipase activity |
| --- | --- |
| polyethylene glycol tert-octylphenyl ether [Triton X-100, reference compound] | stimulated the activity |

same assay, conditions: all concentrations from 0.1-2.0%

| Molecule | Effect of detergent on LIPY lipase activity |
| --- | --- |
| CCCCCCCCCCCC(=O)OCCOCCOCCOCCOCCOCCOCCOCCOCCOCCOCCOCCOCCOCCOCCOCCOCCOCCOCCOCCOCC(OCCOCCOCCOCCOCCOCCOCCOCCOCCOCCOCCOCCOCCOCCOCCOCCOCCOCCOCCOCCO)C1OCC(OCCOCCOCCOCCOCCOCCOCCOCCOCCOCCOCCOCCOCCOCCOCCOCCOCCOCCOCCOCCO)C1OCCOCCOCCOCCOCCOCCOCCOCCOCCOCCOCCOCCOCCOCCOCCOCCOCCOCCOCCOCCO (stereo not drawn) [Tween-20, polyethylene glycol sorbitan monolaurate, reference compound] | inhibited |

same assay, conditions: concentrations above 2 mM

| Molecule | Effect of detergent on LIPY lipase activity |
| --- | --- |
| CCCCCCCCCCCCOS(=O)(=O)[O-].[Na+] [SDS, sodium dodecyl sulfate, reference compound] | severely inhibited |

same assay, conditions: concentrations higher than 0.1%

| Molecule | Effect of detergent on LIPY lipase activity |
| --- | --- |
| polyethylene glycol tert-octylphenyl ether [Triton X-100, reference compound] | inhibitory |

same assay, conditions: concentrations up to 2 mM

| Molecule | Effect of detergent on LIPY lipase activity |
| --- | --- |
| CCCCCCCCCCCCOS(=O)(=O)[O-].[Na+] [SDS, sodium dodecyl sulfate, reference compound] | stimulated slightly |

tested on: not given; format: biochemical, M. tuberculosis; settings: pH 8

| Molecule | TG hydrolase activity |
| --- | --- |
| LIPL: M. tuberculosis putative lipase/esterase gene product expressed in E. coli (protein, UniProt P71778 1-429, looked up) Esterase/beta-lactamase LipL: MMVDTGVDHRAVSSHDGPDAGRRVFGAADPRFACVVRAFASMFPGRRFGGGALAVYLDGQPVVDVWKGWADRAGWVPWSADSAPMVFSATKGMTATVIHRLADRGLIDYEAPVAEYWPAFGANGKATLTVRDVMRHQAGLSGLRGATQQDLLDHVVMEERLAAAVPGRLLGKSAYHALTFGWLMSGLARAVTGKDMRLLFREELAEPLDTDGLHLGRPPADAPTRVAEIIMPQDIAANAVLTCAMRRLAHRFSGGFRSMYFPGAIAAVQGEAPLLDAEIPAANGVATARALARMYGAIANGGEIDGIRFLSRELVTGLTRNRRQVLPDRNLLVPLNFHLGYHGMPIGNVMPGFGHVGLGGSIGWTDPETGVAFALVHNRLLSPLVMTDHAGFVGIYHLIRQAAAQARKRGYQPVTPFGAPYSEPGAAAG | 3.4 nmol/mg/min |
| LIPC: M. tuberculosis putative lipase/esterase gene product expressed in E. coli (protein, UniProt P96402 1-403, looked up) Esterase LipC: MNQRRAAGSTGVAYIRWLLRARPADYMLALSVAGGSLPVVGKHLKPLGGVTAIGVWGARHASDFLSATAKDLLTPGINEVRRRDRASTQEVSVAALRGIVSPDDLAVEWPAPERTPPVCGALRHRRYVHRRRVLYGDDPAQLLDVWRRKDMPTKPAPVLIFVPGGAWVHGSRAIQGYAVLSRLAAQGWVCLSIDYRVAPHHRWPRHILDVKTAIAWARANVDKFGGDRNFIAVAGCSAGGHLSALAGLTANDPQYQAELPEGSDTSVDAVVGIYGRYDWEDRSTPERARFVDFLERVVVQRTIDRHPEVFRDASPIQRVTRNAPPFLVIHGSRDCVIPVEQARSFVERLRAVSRSQVGYLELPGAGHGFDLLDGARTGPTAHAIALFLNQVHRSRAQFAKEVI | 3.3 nmol/mg/min |
| LIPQ: M. tuberculosis putative lipase/esterase gene product expressed in E. coli (protein, UniProt I6Y9F7 1-421, looked up) Esterase LipQ: MHIASVTSRCSRAGAEALRQGAQLAADARDTCRAGALLLRGSPCAIGWVAGWLSAEFPARVVTGHALSRISPRSIGRFGTSWAAQRADQILHAALVDAFGPDFRDLVWHPTGEQSEAARRSGLLNLPHIPGPHRRYAAQTSDIPYGPGGRENLLDIWRRPDLAPGRRAPVLIQVPGGAWTINGKRPQAYPLMSRMVELGWICVSINYSKSPRCTWPAHIVDVKRAIAWVRENIADYGGDPDFITITGGSAGAHLAALAALSANDPALQPGFESADTAVQAAAPYYGVYDLTNAENMHEMMMPFLEHFVMRSRYVDNPGLFKAASPISYVHSEAPPFFVLHGEKDPMVPSAQSRAFSAALRDAGAATVSYAELPNAHHAFDLAATVRSRMVAEAVSDFLGVIYGRRMGARKGSLALSSPPAS | 0.11 nmol/mg/min |
| LIPJ: M. tuberculosis putative lipase/esterase gene product expressed in E. coli (protein, UniProt O07732 1-462, looked up, expressed in E. coli) Bifunctional lipase/adenylate …: MAQAPHIHRTRYAKCGDMDIAYQVLGDGPTDLLVLPGPFVPIDSIDDEPSLYRFHRRLASFSRVIRLDHRGVGLSSRLAAITTLGPKFWAQDAIAVMDAVGCEQATIFAPSFHAMNGLVLAADYPERVRSLIVVNGSARPLWAPDYPVGAQVRRADPFLTVALEPDAVERGFDVLSIVAPTVAGDDVFRAWWDLAGNRAGPPSIARAVSKVIAEADVRDVLGHIEAPTLILHRVGSTYIPVGHGRYLAEHIAGSRLVELPGTDTLYWVGDTGPMLDEIEEFITGVRGGADAERMLATIMFTDIVGSTQHAAALGDDRWRDLLDNHDTIVCHEIQRFGGREVNTAGDGFVATFTSPSAAIACADDIVDAVAALGIEVRIGIHAGEVEVRDASHGTDVAGVAVHIGARVCALAGPSEVLVSSTVRDIVAGSRHRFAERGEQELKGVPGRWRLCVLMRDDATRTR | 0.04 nmol/mg/min |
| LIPM: M. tuberculosis putative lipase/esterase gene product expressed in E. coli (protein, UniProt Q50681 1-431, looked up, expressed in E. coli) Probable carboxylic ester …: MGAPRLIHVIRQIGALVVAAVTAAATINAYRPLARNGFASLWSWFIGLVVTEFPLPTLASQLGGLVLTAQRLTRPVRAVSWLVAAFSALGLLNLSRAGRQADAQLTAALDSGLGPDRRTASAGLWRRPAGGGTAKTPGPLRMLRIYRDYAHDGDISYGEYGRANHLDIWRRPDLDLTGTAPVLFQIPGGAWTTGNKRGQAHPLMSHLAELGWICVAINYRHSPRNTWPDHIIDVKRALAWVKAHISEYGGDPDFIAITGGSAGGHLSSLAALTPNDPRFQPGFEEADTRVQAAVPFYGVYDFTRLQDAMHPMMLPLLERMVVKQPRTANMQSYLDASPVTHISADAPPFFVLHGRNDSLVPVQQARGFVDQLRQVSKQPVVYAELPFTQHAFDLLGSARAAHTAIAVEQFLAEVYATQHAGSEPGPAVAIP | 0.02 nmol/mg/min |
| LIPI: M. tuberculosis putative lipase/esterase gene product expressed in E. coli (protein, UniProt P71668 1-320, looked up, expressed in E. coli) Esterase LipI: MPSLDNTADEKPAIDPILLKVLDAVPFRLSIDDGIEAVRQRLRDLPRQPVHPELRVVDLAIDGPAGPIGTRIYWPPTCPDQAEAPVVLYFHGGGFVMGDLDTHDGTCRQHAVGADAIVVSVDYRLAPEHPYPAAIEDAWAATRWVAEHGRQVGADLGRIAVAGDSAGGTIAAVIAQRARDMGGPPIVFQLLWYPSTLWDQSLPSLAENADAPILDVKAIAAFSRWYAGEIDLHNPPAPMAPGRAENLADLPPAYIAVAGYDPLRDDGIRYGELLAAAGVPVEVHNAQTLVHGYVGYAGVVPAATEATNRGLVALRVVLHG | 0 nmol/mg/min |
| LIPN: M. tuberculosis putative lipase/esterase gene product expressed in E. coli (protein, UniProt P95125 1-376, looked up, expressed in E. coli) Carboxylic ester hydrolase …: MTKSLPGVADLRLGANHPRMWTRRVQGTVVNVGVKVLPWIPTPAKRILSAGRSVIIDGNTLDPTLQLMLSTSRIFGVDGLAVDDDIVASRAHMRAICEAMPGPQIHVDVTDLSIPGPAGEIPARHYRPSGGGATPLLVFYHGGGWTLGDLDTHDALCRLTCRDADIQVLSIDYRLAPEHPAPAAVEDAYAAFVWAHEHASDEFGALPGRVAVGGDSAGGNLSAVVCQLARDKARYEGGPTPVLQWLLYPRTDFTAQTRSMGLFGNGFLLTKRDIDWFHTQYLRDSDVDPADPRLSPLLAESLSGLAPALIAVAGFDPLRDEGESYAKALRAAGTAVDLRYLGSLTHGFLNLFQLGGGSAAGTNELISALRAHLSRV | 0 nmol/mg/min |
